PMC6010082, “Synthesis and in vitro antiproliferative and antibacterial activity of new thiazolidine-2,4-dione derivatives” (Journal of Enzyme Inhibition and Medicinal Chemistry, 2017)
In brackets after ≈: the same amount, converted by molar mass.

What was measured:
[1] = tested on: human lung carcinoma (A549); test: MTT antiproliferative assay, A549 cells; assay type: cell-based; settings: for IC50: Homo sapiens, MTT, 48 h exposure, read-out: IC50 [µg/ml] ± SEM, A549; for SI [IC50BJ/IC50], A549: safety index = IC50 normal cells (BJ)/IC50 A549
Method: (§1) The experiment was carried out using normal human skin fibroblasts (BJ) and tumour cell lines: human lung carcinoma (A549), human hepatocellular carcinoma (HepG2), and human breast adenocarcinoma (MCF-7). All cell lines were obtained from ATCC (American Type Culture Collection, England, UK) and cultured in the appropriate, recommended by ATCC, culture medium, additionally supplemented with 10% foetal bovine serum and antibiotics: 100 U/ml penicillin and 100 µg/ml streptomycin. The cells were maintained at 37 °C in a humidified atmosphere of 5% CO2 and 95% air. Antiproliferative activity of the new compounds was assessed by, commonly used for this purpose, colorimetric MTT assay. Cells with active mitochondrial dehydrogenases reduced intracellularly the tetrazolium dye into purple formazan, which is proportional to the number of viable cells. The cells were seeded in 96-multiwell plates in 100 μl of the appropriate complete culture medium at a concentration of 7 × 10^3 cells/well in the case of BJ cells (normal fibroblasts), 1 × 10^4 cells/well in the case of A549 cells (lung cancer), 1.5 × 10^4 cells/well in the case of HepG2 cells (liver cancer), and 2 × 10^4 cells/well in the case of MCF-7 cells (breast cancer) so as to obtain 60–70% confluent culture after 24 h of incubation at 37 °C – the cells are then in the log (logarithmic) phase, during a period of active proliferation, but still have an unoccupied space to divide. Afterwards, the culture medium was discarded and replaced with 100 µl of different concentrations of new tested compounds and reference antiproliferative agent: irinotecan. The stock solutions of the compounds were prepared in DMSO, and solvent control was being tested concurrently to exclude toxicity attributed to DMSO. Ten serial two-fold dilutions using culture medium were performed to prepare different concentrations of the tested compounds, and the highest tested concentration was 200 µg/ml. Untreated cells (maintained in the complete culture medium) served as a negative control. After exposing cells for 48 h to the tested derivatives, the MTT assay was performed as described earlier. Three independent experiments (n = 3) were performed in a quadruplicate. The obtained data were analysed using GraphPad Prism 5, version 5.03 software (La Jolla, CA). […] Moreover, safety index (SI) was calculated using the following formula: SI=IC50normal cells (BJ)/IC50cancer cells

[2] = tested on: human hepatocellular carcinoma (HepG2); test: MTT antiproliferative assay, HepG2 cells; assay type: cell-based; settings: for IC50: Homo sapiens, MTT, 48 h exposure, read-out: IC50 [µg/ml] ± SEM, HepG2
Method: as §1

[3] = tested on: human breast adenocarcinoma (MCF-7); test: MTT antiproliferative assay, MCF-7 cells; assay type: cell-based; settings: for IC50: Homo sapiens, MCF7, MTT, 48 h exposure, read-out: IC50 [µg/ml] ± SEM, MCF-7
Method: as §1

[4] = tested on: normal human skin fibroblasts (BJ); test: MTT assay, normal fibroblasts BJ; assay type: cell-based; settings: Skin fibroblast, 48 h exposure, read-out: IC50 [µg/ml] ± SEM, BJ
Method: as §1

[5] = tested on: Staphylococcus aureus ATCC 25923; test: Broth microdilution MIC, S. aureus ATCC 25923; assay type: cell-based; settings: 35 °C; for Minimal inhibitory concentration MIC, Staphylococcus aureus 25923: 18 h; for MIC: Staphylococcus aureus, ATCC25923, 18 h, read-out: Minimal inhibitory concentration MIC, Staphylococcus aureus 25923
Method: (§2) Newly synthesised compounds’ antibacterial activities were tested in vitro against six aerobic bacteria reference strains: three Gram-positive (Staphylococcus aureus ATCC 25923, methicillin-resistant S. aureus MIKROBANK 14.001 reference strain from National Medicines Institute in Warsaw, and Staphylococcus epidermidis ATCC 12228) and three Gram-negative (Escherichia coli ATCC 25922, Proteus mirabilis ATCC 12453, and Pseudomonas aeruginosa ATCC 9027).
(§3) Bacterial cell suspensions equivalent to 0.5 McFarland (1.5 × 10^8 CFU/ml) were prepared in 0.85% sterile saline. Tested compounds’ stock solutions (50 mg/ml) were dissolved in dimethyl sulphoxide (DMSO).
(§4) Bacteria strain susceptibility to tested agents was determined by broth microdilution method. Broth microdilution method was carried out in accordance with Clinical and Laboratory Standards Institute recommendations and was used as reference method. Mueller–Hinton broth containing two-fold dilutions of the tested substances (at concentrations ranging from 3.91 to 1000 µg/ml) was used to determine their minimal inhibitory concentration (MIC) which is the lowest concentration of an antibacterial that will inhibit the visible growth of a microorganism after 18 h of incubation). Mueller–Hinton broth is recommended as the medium of choice for susceptibility testing of commonly isolated, rapidly growing aerobic, or facultative organisms. Gentamicin (KRKA, Slovenia), an aminoglycoside antibiotic active against a wide range of human bacterial infections, mostly Gram-negative bacteria including Pseudomonas, Proteus, Serratia, and the Gram-positive Staphylococcus, was used as a control antibacterial agent (at concentration from 0.12 µg to 1000 µg).
(§5) Tested compounds two-fold dilutions in Mueller–Hinton broth without bacteria were blank control wells (incubated on equal conditions). Polystyrene trays containing 96 wells were filled with serial two-fold Mueller–Hinton broth dilutions of tested agents. Next, the broth was inoculated with 20 μl of 0.5 McFarland microbial suspension (previously diluted 1:10 by Mueller–Hinton broth). Total volume per each well was 200 μl. After incubation (at 35 °C for 18 h), bacterial cultures’ optical density was measured by microplate reader (BioTek Synergy H4 Hybrid Reader) at 600 nm. The MIC values were determined by the comparison of broth bacterial culture OD600 containing tested concentrations of examined substances to blank control wells.

[6] = tested on: methicillin-resistant S. aureus MIKROBANK 14.001; test: Broth microdilution MIC, methicillin-resistant S. aureus; assay type: cell-based, Staphylococcus aureus; settings: methicillin-resistant strain, 18 h, 35 °C; for MIC: Staphylococcus aureus, read-out: Minimal inhibitory concentration MIC, Staphylococcus aureus MIKROBANK 14.001
Method: as §2, §3, §4, §5

[7] = tested on: Staphylococcus epidermidis ATCC 12228; test: Broth microdilution MIC, S. epidermidis ATCC 12228; assay type: cell-based; settings: 35 °C; for Minimal inhibitory concentration MIC, Staphylococcus epidermidis 12228: 18 h; for MIC: Staphylococcus epidermidis, ATCC12228, 18 h, read-out: Minimal inhibitory concentration MIC, Staphylococcus epidermidis 12228
Method: as §2, §3, §4, §5

MCF-7 = tested on: MCF-7; parameters: method as in earlier work; settings: MCF-7 tumour cells; ref 6 (Alegaon et al.); cited from earlier work
A549 = tested on: A549; parameters: method as in earlier work; settings: A549 tumour cells; ref 6 (Alegaon et al.); cited from earlier work
[8] = tested on: Escherichia coli ATCC 25922; test: Broth microdilution MIC, E. coli ATCC 25922; assay type: cell-based; settings: ATCC25922, 18 h, 35 °C, read-out: Concentration inhibiting E. coli ATCC 25922 growth (MIC)
Method: as §2, §3
Bacteria strain susceptibility to tested agents was determined by broth microdilution method. Broth microdilution method was carried out in accordance with Clinical and Laboratory Standards Institute recommendations and was used as reference method. […]
Tested compounds two-fold dilutions in Mueller–Hinton broth without bacteria were blank control wells (incubated on equal conditions). […] After incubation (at 35 °C for 18 h), bacterial cultures’ optical density was measured by microplate reader (BioTek Synergy H4 Hybrid Reader) at 600 nm. The MIC values were determined by the comparison of broth bacterial culture OD600 containing tested concentrations of examined substances to blank control wells.

[9] = MCF-7 cells, compared to irinotecan

Row | IC50 ([1]; A549 cells) [µg/mL] | IC50 ([2]; HepG2 cells) [µg/mL] | IC50 ([3]; MCF-7 cells) [µg/mL] | Minimal inhibitory concentration MIC, Staphylococcus aureus 25923 [5] [µg/mL] | MIC [5] [µg/mL] | MIC [6] [µg/mL] | Minimal inhibitory concentration MIC, Staphylococcus aureus MIKROBANK 14.001 [6] [µg/mL] | Minimal inhibitory concentration MIC, Staphylococcus epidermidis 12228 [7] [µg/mL] | MIC [7] [µg/mL] | melting point [°C] | Compound | SI [IC50BJ/IC50], A549 [1] | IC50 [4] [µg/mL] | further results
1 | 31.3 ± 1.66 (≈ 70.8 µM) | 15.2 ± 1.25 (≈ 34.3 µM) | 34.2 ± 1.12 (≈ 77.2 µM) | 125 | 125 | 125 | 125 | 62.5 | 62.5 | 194 to 196 | Cc1ccc(NC(=S)NN=Cc2cccc(OC(=O)CC3SC(=O)NC3=O)c2)cc1 (stereo not drawn) [Compound 23, 3-[{2-[(4-Methylphenyl)carbamothioyl]hydrazinylidene}methyl]phenyl (2,4-dioxo-1,3-thiazolidin-5-yl)acetate] | 0.80 | 25.2 ± 1.52 (≈ 56.9 µM) | SI [IC50BJ/IC50], HepG2 ([2]; safety index = IC50 normal cells (BJ)/IC50 HepG2): 1.66; SI [IC50BJ/IC50], MCF-7 ([3]; safety index = IC50 normal cells (BJ)/IC50 MCF-7): 0.74
2 |  |  |  |  |  |  |  |  |  |  | COc1cc(-c2nnc(NC(=O)CC3SC(=O)NC3=O)s2)cc(OC)c1OC (stereo not drawn) [2-(2,4-dioxo-1,3-thiazolidin-5-yl)-N-[5-(3,4,5-trimethoxyphenyl)-1,3,4-thiadiazol-2-yl]acetamide] |  |  | IC50, MCF-7 (literature) (MCF-7): 15.28 µg/mL (≈ 36 µM); IC50, A549 (literature) (A549): 12.7 µg/mL (≈ 29.9 µM)
3 | 8.08 ± 1.05 (≈ 18.8 µM) | 3.86 ± 1.07 (≈ 8.98 µM) | 1.59 ± 1.06 (≈ 3.7 µM) | 62.5 | 62.5 | 125 | 125 | 125 | 125 | 243 to 245 | O=C(C=C1SC(=O)NC1=O)Oc1ccccc1C=NNC(=O)c1cccc(Cl)c1 [Compound 18, 2-{[2-(3-Chlorobenzoyl)hydrazinylidene]methyl}phenyl (2,4-dioxo-1,3-thiazolidin-5-ylidene)acetate] | 1.24 | 10.1 ± 1.18 (≈ 23.4 µM) | IC50 fold lower compared to irinotecan, A549 ([1]; A549 cells, compared to irinotecan): five-fold lower; IC50 fold lower compared to irinotecan, HepG2 ([2]; HepG2 cells, compared to irinotecan): four-fold lower; IC50 fold lower than IC50 of irinotecan, MCF-7 [3, 9]: 13 fold; SI value compared to the reference substance, MCF-7 [3, 9]: three-fold higher; MIC [8]: 125 µg/mL
